Data on 22 compounds can be found in patent US11773078B2, “Furin inhibitors” (Glaxosmithkline Intellectual Property Development Limited, priority 2018, dated 2023).

For assay [1], the target named is T1, Furin (108-574-Tev-Flag-His) enzyme (Homo sapiens, UniProt P09958).
T1 construct: Furin (108-574-Tev-Flag-His) enzyme was expressed and purified from CHO cells; TEV cleavage site (C); FLAG (C); His (C); made in house; host or cells: CHO cells
In words: Furin enzyme assay. In kind it is biochemical. The following applies: for IC50: read-out: furin enzyme pIC50 (converted). In outline: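 Compounds ran as 11-point threefold dilutions (0.00017–10 μM final) against 40 pM furin, purified from CHO cells, for 2 h at room temperature. Buffer: 100 mM HEPES pH7.5 with 1 mM CaCl2 and 0.005% Triton X-100. Envision readout. Four-parameter curve gives pXC50.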

For assay [2], the target named is T2, furin (endogenous protease) in U20S cells (Homo sapiens, UniProt P09958).
T2 construct: the endogenous protease cleaves GFP; endogenous in cells; host or cells: U2OS cells transduced with a BacMam reporter
In words: Furin cell-based assay (image-based, Golgi-targeted GFP with BMP10 furin/PCSK cleavage site).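 Also: Read-out is mean GFP fluorescence of Golgi puncta per cell by high-content imaging, retained when furin inhibited, over an eleven-point 0.00017–10 µM series, four-parameter fit.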 Conditions: 24-hour incubation, read-out: furin golgi cell pXC50 (converted).

T2 sequence (P09958 108-794): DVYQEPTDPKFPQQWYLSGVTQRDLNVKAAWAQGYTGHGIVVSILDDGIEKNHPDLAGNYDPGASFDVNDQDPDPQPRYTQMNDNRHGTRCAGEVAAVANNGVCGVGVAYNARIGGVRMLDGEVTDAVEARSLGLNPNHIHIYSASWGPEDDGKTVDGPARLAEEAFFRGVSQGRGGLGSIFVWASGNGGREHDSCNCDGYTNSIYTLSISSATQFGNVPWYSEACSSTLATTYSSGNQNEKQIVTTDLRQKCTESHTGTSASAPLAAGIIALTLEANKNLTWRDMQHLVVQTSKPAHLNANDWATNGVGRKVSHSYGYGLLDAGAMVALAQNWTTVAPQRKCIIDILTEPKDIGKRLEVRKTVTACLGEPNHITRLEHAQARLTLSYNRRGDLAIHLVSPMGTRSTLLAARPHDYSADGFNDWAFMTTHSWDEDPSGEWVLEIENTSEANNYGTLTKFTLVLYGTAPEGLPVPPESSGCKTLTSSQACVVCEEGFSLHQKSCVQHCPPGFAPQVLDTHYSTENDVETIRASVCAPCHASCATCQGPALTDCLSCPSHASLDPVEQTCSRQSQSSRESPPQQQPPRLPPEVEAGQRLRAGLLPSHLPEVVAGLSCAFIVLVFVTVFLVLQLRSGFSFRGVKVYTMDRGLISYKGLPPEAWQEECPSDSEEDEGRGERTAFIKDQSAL
T1 sequence (P09958 108-574): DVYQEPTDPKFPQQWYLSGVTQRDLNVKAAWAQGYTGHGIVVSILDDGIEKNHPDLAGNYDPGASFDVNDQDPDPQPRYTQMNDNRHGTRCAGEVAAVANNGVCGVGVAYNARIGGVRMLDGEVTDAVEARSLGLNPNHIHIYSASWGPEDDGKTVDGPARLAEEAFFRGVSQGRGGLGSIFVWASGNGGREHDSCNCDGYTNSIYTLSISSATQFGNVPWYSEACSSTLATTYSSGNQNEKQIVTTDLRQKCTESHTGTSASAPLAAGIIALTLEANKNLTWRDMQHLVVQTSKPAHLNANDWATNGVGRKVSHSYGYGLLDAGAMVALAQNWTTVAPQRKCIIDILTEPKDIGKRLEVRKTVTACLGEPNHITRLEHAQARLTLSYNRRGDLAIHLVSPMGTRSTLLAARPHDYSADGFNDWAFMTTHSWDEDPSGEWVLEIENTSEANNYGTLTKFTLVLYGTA

As for `O=C(O)CC1CCN(Cc2cc(Oc3cnc(N4CCN(CCF)CC4)nc3)nc(-c3cc(Cl)cc(Cl)c3)c2)CC1` [Example 236, 2-(1-((2-(3,5-Dichlorophenyl)-6-((2-(4-(2-fluoroethyl)piperazin-1-yl)pyrimidin-5-yl)oxy)pyridin-4-yl)methyl)piperidin-4-yl)acetic acid], the “furin enzyme pIC50” value in assay [1] was 8.5. The EC50 in assay [2] was 39.8 nM.
As to `CC(O)CCN1CCN(c2ncc(Oc3cc(CN4CCC(CC(=O)O)CC4)cc(-c4cc(Cl)cc(Cl)c4)n3)cn2)CC1` (centres unmarked) [Example 237, 2-(1-((2-(3,5-Dichlorophenyl)-6-((2-(4-(3-hydroxybutyl)piperazin-1-yl)pyrimidin-5-yl)oxy)pyridin-4-yl)methyl)piperidin-4-yl)acetic acid], the “furin enzyme pIC50” value in assay [1] was 8.7. The EC50 in assay [2] is 3.16 nM.
In the case of `CC(CCO)N1CCN(c2ncc(Oc3cc(CN4CCC(CC(=O)O)CC4)cc(-c4cc(Cl)cc(Cl)c4)n3)cn2)CC1` (centres unmarked) [Example 238, 2-(1-((2-(3,5-Dichlorophenyl)-6-((2-(4-(4-hydroxybutan-2-yl)piperazin-1-yl)pyrimidin-5-yl)oxy)pyridin-4-yl)methyl)piperidin-4-yl)acetic acid], the “furin enzyme pIC50” value in assay [1] worked out at 9.8. The EC50 in assay [2] was 10 nM.
The like results for `CNCCC(C)N1CCN(c2ncc(Oc3cc(CN4CCC(CC(=O)O)CC4)cc(-c4cc(Cl)cc(Cl)c4)n3)cn2)CC1` (centres unmarked) [Example 239, 2-(1-((2-(3,5-Dichlorophenyl)-6-((2-(4-(4-(methylamino)butan-2-yl)piperazin-1-yl)pyrimidin-5-yl)oxy)pyridin-4-yl)methyl)piperidin-4-yl)acetic acid] were, in that order, 8 and 25.1 nM.
In the case of `CC(CCN(C)C)N1CCN(c2ncc(Oc3cc(CN4CCC(CC(=O)O)CC4)cc(-c4cc(Cl)cc(Cl)c4)n3)cn2)CC1` (centres unmarked) [Example 240, 2-(1-((2-(3,5-Dichlorophenyl)-6-((2-(4-(4-(dimethylamino)butan-2-yl)piperazin-1-yl)pyrimidin-5-yl)oxy)pyridin-4-yl)methyl)piperidin-4-yl)acetic acid], the “furin enzyme pIC50” value in assay [1] is recorded as 8.4. For the same compound, the EC50 in assay [2] is 6.31 nM.
With `CNC(=O)OCCN1CCN(c2ncc(Oc3cc(CN4CCC(CC(=O)O)CC4)cc(-c4cc(Cl)cc(Cl)c4)n3)cn2)CC1` [Example 241, 2-(1-((2-(3,5-Dichlorophenyl)-6-((2-(4-(2-((methylcarbamoyl)oxy)ethyl)piperazin-1-yl)pyrimidin-5-yl)oxy)pyridin-4-yl)methyl)piperidin-4-yl)acetic acid], in assay [1], the “furin enzyme pIC50” value is recorded as 8.6. Further, in assay [2], the EC50 is 63.1 nM.
`CS(=O)(=O)CCCN1CCN(c2ccc(Oc3cc(CN4CCC(CC(=O)O)CC4)cc(-c4cc(Cl)cc(Cl)c4)n3)cn2)CC1` [Example 243, 2-(1-((2-(3,5-dichlorophenyl)-6-((6-(4-(3-(methylsulfonyl)propyl)piperazin-1-yl)pyridin-3-yl)oxy)pyridin-4-yl)methyl)piperidin-4-yl)acetic acid]: the “furin enzyme pIC50” value in assay [1] is 8.7. For the same compound, the EC50 in assay [2] is 25.1 nM.
The like results for `COCCN1CCN(c2ccc(Oc3cc(CN4CCC(CC(=O)O)CC4)cc(-c4cc(Cl)cc(Cl)c4)n3)cn2)CC1` [Example 244, 2-(1-((2-(3,5-dichlorophenyl)-6-((6-(4-(2-methoxyethyl)piperazin-1-yl)pyridin-3-yl)oxy)pyridin-4-yl)methyl)piperidin-4-yl)acetic acid] were, in that order, 8.3 and 20 nM.
`COCCN1CCN(c2ncc(Oc3cc(CN4CCC(CNC(C)=O)CC4)cc(-c4cc(Cl)cc(Cl)c4)n3)cn2)CC1` [Example 245, N-((1-((2-(3,5-dichlorophenyl)-6-((2-(4-(2-methoxyethyl)piperazin-1-yl)pyrimidin-5-yl)oxy)pyridin-4-yl)methyl)piperidin-4-yl)methyl)acetamide]: the “furin enzyme pIC50” value in assay [1] is reported as 10. Also, in assay [2], the EC50 is 3.98 nM.
As to `NS(=O)(=O)CCCN1CCN(c2ncc(Oc3cc(CN4CCC(CC(=O)O)CC4)cc(-c4cc(Cl)cc(Cl)c4)n3)cn2)CC1` [Example 246, 2-(1-((2-(3,5-dichlorophenyl)-6-((2-(4-(3-sulfamoylpropyl)piperazin-1-yl)pyrimidin-5-yl)oxy)pyridin-4-yl)methyl)piperidin-4-yl)acetic acid], the “furin enzyme pIC50” value in assay [1] was determined as 8.9. Further, the EC50 in assay [2] was 15.8 nM.
In the case of `COCCN1CCN(c2ncc(Oc3cc(CN4CCC(CC(=O)O)CC4)cc(-c4cc(Cl)cc(Cl)c4)n3)cn2)CC1` [Example 247, 2-(1-((2-(3,5-dichlorophenyl)-6-((2-(4-(2-methoxyethyl)piperazin-1-yl)pyrimidin-5-yl)oxy)pyridin-4-yl)methyl)piperidin-4-yl)acetic acid], in assay [1], the “furin enzyme pIC50” value stood at 8.5. The EC50 in assay [2] was 31.6 nM.
Consider `CNC(=O)OCC1CCN(Cc2cc(Oc3cnc(N4CCN(CCC(=O)O)CC4)nc3)nc(-c3cc(Cl)cc(Cl)c3)c2)CC1` [Example 248, 3-(4-(5-((6-(3,5-dichlorophenyl)-4-((4-(((methylcarbamoyl)oxy)methyl)piperidin-1-yl)methyl)pyridin-2-yl)oxy)pyrimidin-2-yl)piperazin-1-yl)propanoic acid], for which, in assay [1], the IC50 is 0.0316 nM. In addition, in assay [2], the EC50 was 25.1 nM.
As for `CC(=O)NCC1CCN(Cc2cc(Oc3ccc(N4CCN(CCCC(=O)O)CC4)nc3)nc(-c3cc(Cl)cc(Cl)c3)c2)CC1` [Example 249, 4-(4-(5-((4-((4-(acetamidomethyl)piperidin-1-yl)methyl)-6-(3,5-dichlorophenyl)pyridin-2-yl)oxy)pyridin-2-yl)piperazin-1-yl)butanoic acid], in assay [1], the “furin enzyme pIC50” value worked out at 9.1. For the same compound, the EC50 in assay [2] was 12.6 nM.
Consider `COCCN1CCN(c2ccc(Oc3cc(CN4CCC(CNC(C)=O)CC4)cc(-c4cc(Cl)cc(Cl)c4)n3)cn2)CC1` [Example 250, N-((1-((2-(3,5-dichlorophenyl)-6-((6-(4-(2-methoxyethyl)piperazin-1-yl)pyridin-3-yl)oxy)pyridin-4-yl)methyl)piperidin-4-yl)methyl)acetamide], for which the “furin enzyme pIC50” value in assay [1] worked out at 8.9. The EC50 in assay [2] is < 0.794 nM.
As for `CC(=O)NCC1CCN(Cc2cc(Oc3ccc(N4CCN(CCCS(C)(=O)=O)CC4)nc3)nc(-c3cc(Cl)cc(Cl)c3)c2)CC1` [Example 251, N-((1-((2-(3,5-dichlorophenyl)-6-((6-(4-(3-(methylsulfonyl)propyl)piperazin-1-yl)pyridin-3-yl)oxy)pyridin-4-yl)methyl)piperidin-4-yl)methyl)acetamide], the IC50 in assay [1] was < 0.158 nM. The EC50 in assay [2] was 5.01 nM.
In the case of `NS(=O)(=O)CCCN1CCN(c2ccc(Oc3cc(CN4CCC(CC(=O)O)CC4)cc(-c4cc(Cl)cc(Cl)c4)n3)cn2)CC1` [Example 252, 2-(1-((2-(3,5-dichlorophenyl)-6-((6-(4-(3-sulfamoylpropyl)piperazin-1-yl)pyridin-3-yl)oxy)pyridin-4-yl)methyl)piperidin-4-yl)acetic acid], the “furin enzyme pIC50” value in assay [1] was found to be 8.5. In addition, in assay [2], the EC50 is 31.6 nM.
On to `CC(=O)NCC1CCN(Cc2cc(Oc3cnc(N4CCN(CCCS(N)(=O)=O)CC4)nc3)nc(-c3cc(Cl)cc(Cl)c3)c2)CC1` [Example 253, N-((1-((2-(3,5-dichlorophenyl)-6-((2-(4-(3-sulfamoylpropyl)piperazin-1-yl)pyrimidin-5-yl)oxy)pyridin-4-yl)methyl)piperidin-4-yl)methyl)acetamide], for which, in assay [1], the “furin enzyme pIC50” value is listed as 9.7. For the same compound, in assay [2], the EC50 was 2.51 nM.
For `CNC(=O)NCC1CCN(Cc2cc(Oc3ccc(N4CCN(CCOC)CC4)nc3)nc(-c3cc(Cl)cc(Cl)c3)c2)CC1` [Example 254, 1-((1-((2-(3,5-dichlorophenyl)-6-((6-(4-(2-methoxyethyl)piperazin-1-yl)pyridin-3-yl)oxy)pyridin-4-yl)methyl)piperidin-4-yl)methyl)-3-methylurea], in that order: 8.7 and 3.16 nM.
In the case of `CNC(=O)NCC1CCN(Cc2cc(Oc3ccc(N4CCN(CCCS(C)(=O)=O)CC4)nc3)nc(-c3cc(Cl)cc(Cl)c3)c2)CC1` [Example 255, 1-((1-((2-(3,5-dichlorophenyl)-6-((6-(4-(3-(methylsulfonyl)propyl)piperazin-1-yl)pyridin-3-yl)oxy)pyridin-4-yl)methyl)piperidin-4-yl)methyl)-3-methylurea], in assay [1], the “furin enzyme pIC50” value amounted to 9.5. In addition, the EC50 in assay [2] is 6.31 nM.
The like results for `CNC(=O)NCC1CCN(Cc2cc(Oc3cnc(N4CCN(CCC(=O)O)CC4)nc3)nc(-c3cc(Cl)cc(Cl)c3)c2)CC1` [Example 256, 3-(4-(5-((6-(3,5-dichlorophenyl)-4-((4-((3-methylureido)methyl)piperidin-1-yl)methyl)pyridin-2-yl)oxy)pyrimidin-2-yl)piperazin-1-yl)propanoic acid] were, in that order, 9.5 and 15.8 nM.
For `CNC(=O)NCC1CCN(Cc2cc(Oc3cnc(N4CCN(CCCS(C)(=O)=O)CC4)nc3)nc(-c3cc(Cl)cc(Cl)c3)c2)CC1` [Example 257, 1-((1-((2-(3,5-dichlorophenyl)-6-((2-(4-(3-(methylsulfonyl)propyl)piper-1-yl)pyrimidin-5-yl)oxy)pyridin-4-yl)methyl)piperidin-4-yl)methyl)-3-methylurea], the “furin enzyme pIC50” value in assay [1] is 10.1. For the same compound, the EC50 in assay [2] was 5.01 nM.
Turning to `CC(=O)NCC1CCN(Cc2cc(Oc3ccc(N4CCN(CCC(=O)O)CC4)nc3)cc(-c3cc(Cl)cc(Cl)c3)c2)CC1` [Example 258, 3-(4-(5-((5-((4-(acetamidomethyl)piperidin-1-yl)methyl)-3′,5′-dichloro-[1,1′-biphenyl]-3-yl)oxy)pyridin-2-yl)piperazin-1-yl)propanoic acid], the “furin enzyme pIC50” value in assay [1] was 9.6. Moreover, the EC50 in assay [2] is 31.6 nM.
